From patent US6737383B1, “Herbicidal oxadiazolidines” (priority 1999, dated 2004)

What was measured:
blackgrass = experiment: Test B pre/postemergence blackgrass; assay type: in vivo, Alopecurus myosuroides
Outline: (§1)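 Test chemicals in a non-phytotoxic solvent mixture with surfactant were sprayed preemergence onto planted seeds and postemergence onto plants 2 to 18 cm tall (1- to 4-leaf stage). After twelve to sixteen days in a greenhouse, injury was visually rated against untreated controls from 0 (no effect) to 10 (complete control).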

surinam grass = experiment: Test B pre/postemergence surinam grass; assay type: in vivo, Brachiaria decumbens
Outline: as §1

cocklebur = experiment: Test B pre/postemergence cocklebur; assay type: in vivo, Xanthium strumarium
Outline: as §1

corn = experiment: Test B pre/postemergence corn; assay type: in vivo, Zea mays
Outline: as §1

crabgrass = experiment: Test B pre/postemergence crabgrass; assay type: in vivo, Digitaria sanguinalis
Outline: as §1

giant foxtail = experiment: Test B pre/postemergence giant foxtail; assay type: in vivo, Setaria faberii
Outline: as §1

morningglory = experiment: Test B pre/postemergence morningglory; assay type: in vivo, Ipomoea hederacea
Outline: as §1

pigweed = experiment: Test B pre/postemergence pigweed; assay type: in vivo, Amaranthus retroflexus
Outline: as §1

rape = experiment: Test B pre/postemergence rape; assay type: in vivo, Brassica napus
Outline: as §1

soybean = experiment: Test B pre/postemergence soybean; assay type: in vivo, Glycine max
Outline: as §1

sugar beet = experiment: Test B pre/postemergence sugar beet; assay type: in vivo, Beta vulgaris
Outline: as §1

velvetleaf = experiment: Test B pre/postemergence velvetleaf; assay type: in vivo, Abutilon theophrasti
Outline: as §1

wheat = experiment: Test B pre/postemergence wheat; assay type: in vivo, Triticum aestivum
Outline: as §1

wild oat = experiment: Test B pre/postemergence wild oat; assay type: in vivo, Avena fatua
Outline: as §1

purple nutsedge = experiment: Test B pre/postemergence purple nutsedge; assay type: in vivo, Cyperus rotundus
Outline: as §1

rice = experiment: Test B flood test rice; assay type: in vivo, Oryza sativa
Outline: (§2)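 Read-out is a visual response score from 0 (no effect) to 10 (complete control), assigned by comparison with untreated controls. Treatment was applied at the 2-leaf stage, and plants stayed in the greenhouse for twelve to sixteen days before scoring.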

smallflower flatsedge = experiment: Test B flood test smallflower flatsedge; assay type: in vivo, Cyperus difformis
Outline: as §2

duck salad = experiment: Test B flood test duck salad; assay type: in vivo, Heteranthera limosa
Outline: as §2

bamyardgrass = experiment: Test B flood test barnyardgrass; assay type: in vivo, Echinochloa crus-galli
Outline: as §2

[1] = Postemergence, Rate 125 g/ha, scale 0 to 10, 0 is no effect, 10 is complete control
[2] = Postemergence, Rate 500 g/ha, scale 0 to 10, 0 is no effect, 10 is complete control
[3] = Preemergence, Rate 62 g/ha, scale of 0 to 10 where 0 is no effect and 10 is complete control
[4] = Preemergence, Rate 125 g/ha, scale 0 to 10, 0 is no effect, 10 is complete control
[5] = Preemergence, Rate 250 g/ha, scale 0 to 10, 0 is no effect, 10 is complete control
[6] = Preemergence, Rate 500 g/ha, scale of 0 to 10 where 0 is no effect and 10 is complete control
[7] = Rate 62 g/ha, Postemergence, scale 0 to 10, 0 no effect, 10 complete control
[8] = Postemergence, Rate 250 g/ha, scale 0 to 10
[9] = Rate 62 g/ha, flood test species, Pre-emergence, visual evaluation after twelve to sixteen days
[10] = Rate 125 g/ha, under heading Pre-emergence, flood test species, visual evaluation after twelve to sixteen days
[11] = Rate 250 g/ha, Pre-emergence (flood test species), scale 0 to 10, 0 is no effect, 10 is complete control
[12] = Rate 500 g/ha, Pre-emergence section of Table B, 0 to 10 scale (0 no effect, 10 complete control)

C=C(Cn1c(=O)on(C(=O)N(c2ccccc2)C(C)C)c1=O)c1cccnc1 [Compound 498]
Blackgrass plant response rating (blackgrass; [1]): 0
Plant response rating, Blackgrass (blackgrass; [2]): 5
Plant response rating, Blackgrass (blackgrass; [3]): 0
Blackgrass plant response rating (blackgrass; [4]): 0
Blackgrass plant response rating (blackgrass; [5]): 0
Blackgrass plant response rating (blackgrass; [6]): 0
Blackgrass plant response rating (blackgrass; [7]): 0
B. signalgrass plant response rating (surinam grass; [1]): 0
B. signalgrass plant response rating (surinam grass; Postemergence, Rate 250 g/ha, scale 0 to 10, 0 no effect, 10 complete control): 0
Plant response rating, B. signalgrass (surinam grass; [2]): 0
Plant response rating, B. signalgrass (surinam grass; [3]): 0
B. signalgrass plant response rating (surinam grass; [4]): 0
B. signalgrass plant response rating (surinam grass; [5]): 0
B. signalgrass plant response rating (surinam grass; Preemergence, Rate 500 g/ha, scale 0 to 10, 0 is no effect, 10 is complete control): 0
B. signalgrass plant response rating (surinam grass; [7]): 0
Cocklebur plant response rating (cocklebur; [1]): 0
Cocklebur plant response rating (cocklebur; [8]): 0
Plant response rating, Cocklebur (cocklebur; [2]): 0
Plant response rating, Cocklebur (cocklebur; [3]): 0
Cocklebur plant response rating (cocklebur; [4]): 0
Cocklebur plant response rating (cocklebur; [5]): 0
Cocklebur plant response rating (cocklebur; [6]): 0
Cocklebur plant response rating (cocklebur; [7]): 0
Corn plant response rating (corn; [1]): 0
Corn plant response rating (corn; [8]): 0
Plant response rating, Corn (corn; [2]): 0
Plant response rating, Corn (corn; [3]): 0
Corn plant response rating (corn; [4]): 0
Corn plant response rating (corn; [6]): 0
Corn plant response rating (corn; [7]): 0
Crabgrass plant response rating (crabgrass; [8]): 0
Plant response rating, Crabgrass (crabgrass; [2]): 2
Plant response rating, Crabgrass (crabgrass; [3]): 0
Crabgrass plant response rating (crabgrass; [4]): 2
Crabgrass plant response rating (crabgrass; [6]): 5
Crabgrass plant response rating (crabgrass; [7]): 0
Giant foxtail plant response rating (giant foxtail; [1]): 2
Plant response rating, Giant foxtail (giant foxtail; [2]): 3
Plant response rating, Giant foxtail (giant foxtail; [3]): 0
Giant foxtail plant response rating (giant foxtail; [4]): 2
Giant foxtail plant response rating (giant foxtail; [6]): 8
Giant foxtail plant response rating (giant foxtail; [7]): 0
Morningglory plant response rating (morningglory; [1]): 3
Plant response rating, Morningglory (morningglory; [2]): 4
Plant response rating, Morningglory (morningglory; [3]): 0
Morningglory plant response rating (morningglory; [4]): 0
Morningglory plant response rating (morningglory; [6]): 0
Morningglory plant response rating (morningglory; [7]): 1
Redroot pigweed plant response rating (pigweed; [1]): 0
Plant response rating, Redroot pigweed (pigweed; [2]): 0
Plant response rating, Redroot pigweed (pigweed; [3]): 0
Redroot pigweed plant response rating (pigweed; [4]): 0
Redroot pigweed plant response rating (pigweed; [6]): 0
Redroot pigweed plant response rating (pigweed; [7]): 0
Rape plant response rating (rape; [1]): 0
Plant response rating, Rape (rape; [2]): 0
Plant response rating, Rape (rape; [3]): 0
Rape plant response rating (rape; [4]): 0
Rape plant response rating (rape; [6]): 0
Rape plant response rating (rape; [7]): 0
Soybean plant response rating (soybean; [1]): 1
Plant response rating, Soybean (soybean; [2]): 1
Plant response rating, Soybean (soybean; [3]): 0
Soybean plant response rating (soybean; [4]): 0
Soybean plant response rating (soybean; [6]): 0
Soybean plant response rating (soybean; [7]): 1
Sugarbeets plant response rating (sugar beet; [1]): 0
Plant response rating, Sugarbeets (sugar beet; [2]): 0
Plant response rating, Sugarbeets (sugar beet; [3]): 0
Sugarbeets plant response rating (sugar beet; [4]): 0
Sugarbeets plant response rating (sugar beet; [6]): 0
Sugarbeets plant response rating (sugar beet; [7]): 0
Velvetleaf plant response rating (velvetleaf; [1]): 0
Plant response rating, Velvetleaf (velvetleaf; [2]): 2
Plant response rating, Velvetleaf (velvetleaf; [3]): 0
Velvetleaf plant response rating (velvetleaf; [4]): 0
Velvetleaf plant response rating (velvetleaf; [6]): 0
Velvetleaf plant response rating (velvetleaf; [7]): 0
Wheat plant response rating (wheat; [1]): 0
Plant response rating, Wheat (wheat; [2]): 0
Plant response rating, Wheat (wheat; [3]): 0
Wheat plant response rating (wheat; [4]): 0
Wheat plant response rating (wheat; [6]): 0
Wheat plant response rating (wheat; [7]): 0
Wild oats plant response rating (wild oat; [1]): 0
Plant response rating, Wild oats (wild oat; [2]): 0
Plant response rating, Wild oats (wild oat; [3]): 0
Wild oats plant response rating (wild oat; [4]): 0
Wild oats plant response rating (wild oat; [6]): 0
Wild oats plant response rating (wild oat; [7]): 0
Nutsedge plant response rating (purple nutsedge; [1]): 0
Plant response rating, Nutsedge (purple nutsedge; [2]): 0
Plant response rating, Nutsedge (purple nutsedge; [3]): 0
Nutsedge plant response rating (purple nutsedge; [4]): 0
Nutsedge plant response rating (purple nutsedge; [6]): 0
Nutsedge plant response rating (purple nutsedge; [7]): 0
Plant response rating, Rice (0 to 10 scale, 0 is no effect, 10 is complete control) (rice; [9]): 0
Rice plant response rating (0 to 10 scale, 0 is no effect, 10 is complete control) (rice; [10]): 0
Rice plant response rating (rice; [11]): 0
Rice plant response rating (rice; [12]): 0
Plant response rating, S. Flatsedge (0 to 10 scale, 0 is no effect, 10 is complete control) (smallflower flatsedge; [9]): 0
S. Flatsedge plant response rating (0 to 10 scale, 0 is no effect, 10 is complete control) (smallflower flatsedge; [10]): 0
S. Flatsedge plant response rating (smallflower flatsedge; [11]): 0
S. Flatsedge plant response rating (smallflower flatsedge; [12]): 0
Plant response rating, Ducksalad (0 to 10 scale, 0 is no effect, 10 is complete control) (duck salad; [9]): 0
Ducksalad plant response rating (0 to 10 scale, 0 is no effect, 10 is complete control) (duck salad; [10]): 0
Ducksalad plant response rating (duck salad; [11]): 0
Ducksalad plant response rating (duck salad; [12]): 0
Plant response rating, Barnyardgrass (0 to 10 scale, 0 is no effect, 10 is complete control) (bamyardgrass; [9]): 0
Barnyardgrass plant response rating (0 to 10 scale, 0 is no effect, 10 is complete control) (bamyardgrass; [10]): 0
Barnyardgrass plant response rating (bamyardgrass; [11]): 0
Barnyardgrass plant response rating (bamyardgrass; [12]): 0
